Experimental data: patent US9693556B2, “Herbicidal pyridazinone derivatives” (SYNGENTA LIMITED, priority 2011, dated 2017)

Tests used:
Type in all cases: in vivo
[1] = system: Echinochloa crus-galli (ECHCG); test: Pre-emergence herbicidal glasshouse test on Echinochloa crus-galli; settings: pre-emergence; 1000 g/h; evaluated after 13 days
In short: (§1)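 Pre-emergence treatment came one day after sowing, post-emergence treatment after eight days' growth; both used 1000 g/h in a 0.5% Tween 20 acetone/water vehicle. Percent damage, scored 1–5, was read 13 days later.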

[2] = system: Echinochloa crus-galli (ECHCG); test: Post-emergence herbicidal glasshouse test on Echinochloa crus-galli; settings: post-emergence; 1000 g/h; evaluated after 13 days
In short: as §1

Solanum nigrum (SOLNI) [3] = test: Pre-emergence herbicidal glasshouse test on Solanum nigrum; settings: pre-emergence; 1000 g/h; evaluated after 13 days
In short: as §1

Setaria faberi (SETFA) [4] = test: Pre-emergence herbicidal glasshouse test on Setaria faberi; settings: pre-emergence; 1000 g/h; evaluated after 13 days
In short: as §1

Solanum nigrum (SOLNI) [5] = test: Post-emergence herbicidal glasshouse test on Solanum nigrum; settings: post-emergence; 1000 g/h; evaluated after 13 days
In short: as §1

[6] = system: Amaranthus retoflexus (AMARE); test: Post-emergence herbicidal glasshouse test on Amaranthus retoflexus; settings: post-emergence; 1000 g/h; evaluated after 13 days
In short: as §1

Setaria faberi (SETFA) [7] = test: Post-emergence herbicidal glasshouse test on Setaria faberi; settings: post-emergence; 1000 g/h; evaluated after 13 days
In short: as §1

[8] = system: Ipomoea hederacea (IPOHE); test: Pre-emergence herbicidal glasshouse test on Ipomoea hederacea; settings: pre-emergence; 1000 g/h; evaluated after 13 days
In short: as §1

[9] = system: Amaranthus retoflexus (AMARE); test: Pre-emergence herbicidal glasshouse test on Amaranthus retoflexus; settings: pre-emergence; 1000 g/h; evaluated after 13 days
In short: as §1

[10] = system: Alopecurus myosuroides (ALOMY); test: Pre-emergence herbicidal glasshouse test on Alopecurus myosuroides; settings: pre-emergence; 1000 g/h; evaluated after 13 days
In short: as §1

[11] = system: Ipomoea hederacea (IPOHE); test: Post-emergence herbicidal glasshouse test on Ipomoea hederacea; settings: post-emergence; 1000 g/h; evaluated after 13 days
In short: as §1

[12] = system: Alopecurus myosuroides (ALOMY); test: Post-emergence herbicidal glasshouse test on Alopecurus myosuroides; settings: post-emergence; 1000 g/h; evaluated after 13 days
In short: as §1

## Cn1ncc(-c2cc(OC(F)(F)F)ccc2Cl)c(O)c1=O [Compound 1.100]
[1]
  PRE Application ECHCG herbicidal damage (five point scale): 1 (1=0-19% damage)
[2]
  POST Application ECHCG herbicidal damage (five point scale): 1 (1=0-19% damage)
Solanum nigrum (SOLNI) [3]
  PRE Application SOLNI herbicidal damage (five point scale): 1 (1=0-19% damage)
Setaria faberi (SETFA) [4]
  PRE Application SETFA herbicidal damage (five point scale): 1 (1=0-19% damage)
Solanum nigrum (SOLNI) [5]
  POST Application SOLNI herbicidal damage (five point scale): 2 (2=20-39% damage)
[6]
  POST Application AMARE herbicidal damage (five point scale): 2 (2=20-39% damage)
Setaria faberi (SETFA) [7]
  POST Application SETFA herbicidal damage (five point scale): 1 (1=0-19% damage)
[8]
  PRE Application IPOHE herbicidal damage (five point scale): 1 (1=0-19% damage)
[9]
  PRE Application AMARE herbicidal damage (five point scale): 1 (1=0-19% damage)
[10]
  PRE Application ALOMY herbicidal damage (five point scale): 1 (1=0-19% damage)
[11]
  POST Application IPOHE herbicidal damage (five point scale): 2 (2=20-39% damage)
[12]
  POST Application ALOMY herbicidal damage (five point scale): 1 (1=0-19% damage)

## Cc1ccc(Cl)c(-c2cnn(C)c(=O)c2O)c1 [Compound 1.101]
[1]
  PRE Application ECHCG herbicidal damage (five point scale): 1 (1=0-19% damage)
[2]
  POST Application ECHCG herbicidal damage (five point scale): 1 (1=0-19% damage)
Solanum nigrum (SOLNI) [3]
  PRE Application SOLNI herbicidal damage (five point scale): 1 (1=0-19% damage)
Setaria faberi (SETFA) [4]
  PRE Application SETFA herbicidal damage (five point scale): 1 (1=0-19% damage)
Solanum nigrum (SOLNI) [5]
  POST Application SOLNI herbicidal damage (five point scale): 1 (1=0-19% damage)
[6]
  POST Application AMARE herbicidal damage (five point scale): 1 (1=0-19% damage)
Setaria faberi (SETFA) [7]
  POST Application SETFA herbicidal damage (five point scale): 1 (1=0-19% damage)
[8]
  PRE Application IPOHE herbicidal damage (five point scale): 1 (1=0-19% damage)
[9]
  PRE Application AMARE herbicidal damage (five point scale): 1 (1=0-19% damage)
[10]
  PRE Application ALOMY herbicidal damage (five point scale): 1 (1=0-19% damage)
[11]
  POST Application IPOHE herbicidal damage (five point scale): 1 (1=0-19% damage)
[12]
  POST Application ALOMY herbicidal damage (five point scale): 1 (1=0-19% damage)

## COc1ccc(-c2cnn(C)c(=O)c2O)c(Cl)c1 [Compound 1.103]
[1]
  PRE Application ECHCG herbicidal damage (five point scale): 1 (1=0-19% damage)
[2]
  POST Application ECHCG herbicidal damage (five point scale): 1 (1=0-19% damage)
Solanum nigrum (SOLNI) [3]
  PRE Application SOLNI herbicidal damage (five point scale): 1 (1=0-19% damage)
Setaria faberi (SETFA) [4]
  PRE Application SETFA herbicidal damage (five point scale): 1 (1=0-19% damage)
Solanum nigrum (SOLNI) [5]
  POST Application SOLNI herbicidal damage (five point scale): 2 (2=20-39% damage)
[6]
  POST Application AMARE herbicidal damage (five point scale): 1 (1=0-19% damage)
Setaria faberi (SETFA) [7]
  POST Application SETFA herbicidal damage (five point scale): 1 (1=0-19% damage)
[8]
  PRE Application IPOHE herbicidal damage (five point scale): 1 (1=0-19% damage)
[9]
  PRE Application AMARE herbicidal damage (five point scale): 1 (1=0-19% damage)
[10]
  PRE Application ALOMY herbicidal damage (five point scale): 1 (1=0-19% damage)
[11]
  POST Application IPOHE herbicidal damage (five point scale): 1 (1=0-19% damage)
[12]
  POST Application ALOMY herbicidal damage (five point scale): 1 (1=0-19% damage)

## Cn1ncc(-c2ccc(S(C)(=O)=O)cc2Cl)c(O)c1=O [Compound 1.105]
[1]
  PRE Application ECHCG herbicidal damage (five point scale): 5 (5=80-100% damage)
[2]
  POST Application ECHCG herbicidal damage (five point scale): 5 (5=80-100% damage)
Solanum nigrum (SOLNI) [3]
  PRE Application SOLNI herbicidal damage (five point scale): 4 (4=60-79% damage)
Setaria faberi (SETFA) [4]
  PRE Application SETFA herbicidal damage (five point scale): 2 (2=20-39% damage)
Solanum nigrum (SOLNI) [5]
  POST Application SOLNI herbicidal damage (five point scale): 5 (5=80-100% damage)
[6]
  POST Application AMARE herbicidal damage (five point scale): 5 (5=80-100% damage)
Setaria faberi (SETFA) [7]
  POST Application SETFA herbicidal damage (five point scale): 1 (1=0-19% damage)
[8]
  PRE Application IPOHE herbicidal damage (five point scale): 1 (1=0-19% damage)
[9]
  PRE Application AMARE herbicidal damage (five point scale): 5 (5=80-100% damage)
[10]
  PRE Application ALOMY herbicidal damage (five point scale): 2 (2=20-39% damage)
[11]
  POST Application IPOHE herbicidal damage (five point scale): 5 (5=80-100% damage)
[12]
  POST Application ALOMY herbicidal damage (five point scale): 2 (2=20-39% damage)

## Cn1ncc(-c2c(Br)cccc2S(C)(=O)=O)c(O)c1=O [Compound 1.106]
[1]
  PRE Application ECHCG herbicidal damage (five point scale): 1 (1=0-19% damage)
[2]
  POST Application ECHCG herbicidal damage (five point scale): 4 (4=60-79% damage)
Solanum nigrum (SOLNI) [3]
  PRE Application SOLNI herbicidal damage (five point scale): 1 (1=0-19% damage)
Setaria faberi (SETFA) [4]
  PRE Application SETFA herbicidal damage (five point scale): 1 (1=0-19% damage)
Solanum nigrum (SOLNI) [5]
  POST Application SOLNI herbicidal damage (five point scale): 4 (4=60-79% damage)
[6]
  POST Application AMARE herbicidal damage (five point scale): 5 (5=80-100% damage)
Setaria faberi (SETFA) [7]
  POST Application SETFA herbicidal damage (five point scale): 2 (2=20-39% damage)
[8]
  PRE Application IPOHE herbicidal damage (five point scale): 1 (1=0-19% damage)
[9]
  PRE Application AMARE herbicidal damage (five point scale): 4 (4=60-79% damage)
[10]
  PRE Application ALOMY herbicidal damage (five point scale): 1 (1=0-19% damage)
[11]
  POST Application IPOHE herbicidal damage (five point scale): 2 (2=20-39% damage)
[12]
  POST Application ALOMY herbicidal damage (five point scale): 2 (2=20-39% damage)

## Cn1ncc(-c2ccc(S(C)(=O)=O)c(O)c2Cl)c(O)c1=O [Compound 1.108]
[1]
  PRE Application ECHCG herbicidal damage (five point scale): 1 (1=0-19% damage)
[2]
  POST Application ECHCG herbicidal damage (five point scale): 1 (1=0-19% damage)
Solanum nigrum (SOLNI) [3]
  PRE Application SOLNI herbicidal damage (five point scale): 1 (1=0-19% damage)
Setaria faberi (SETFA) [4]
  PRE Application SETFA herbicidal damage (five point scale): 1 (1=0-19% damage)
Solanum nigrum (SOLNI) [5]
  POST Application SOLNI herbicidal damage (five point scale): 3 (3=40-59% damage)
[6]
  POST Application AMARE herbicidal damage (five point scale): 3 (3=40-59% damage)
Setaria faberi (SETFA) [7]
  POST Application SETFA herbicidal damage (five point scale): 1 (1=0-19% damage)
[8]
  PRE Application IPOHE herbicidal damage (five point scale): 1 (1=0-19% damage)
[9]
  PRE Application AMARE herbicidal damage (five point scale): 1 (1=0-19% damage)
[10]
  PRE Application ALOMY herbicidal damage (five point scale): 1 (1=0-19% damage)
[11]
  POST Application IPOHE herbicidal damage (five point scale): 1 (1=0-19% damage)
[12]
  POST Application ALOMY herbicidal damage (five point scale): 1 (1=0-19% damage)

## Cn1ncc(-c2ccc(Cl)cc2[N+](=O)[O-])c(O)c1=O [Compound 1.109]
[1]
  PRE Application ECHCG herbicidal damage (five point scale): 1 (1=0-19% damage)
[2]
  POST Application ECHCG herbicidal damage (five point scale): 2 (2=20-39% damage)
Solanum nigrum (SOLNI) [3]
  PRE Application SOLNI herbicidal damage (five point scale): 2 (2=20-39% damage)
Setaria faberi (SETFA) [4]
  PRE Application SETFA herbicidal damage (five point scale): 1 (1=0-19% damage)
Solanum nigrum (SOLNI) [5]
  POST Application SOLNI herbicidal damage (five point scale): 4 (4=60-79% damage)
[6]
  POST Application AMARE herbicidal damage (five point scale): 5 (5=80-100% damage)
Setaria faberi (SETFA) [7]
  POST Application SETFA herbicidal damage (five point scale): 1 (1=0-19% damage)
[8]
  PRE Application IPOHE herbicidal damage (five point scale): 1 (1=0-19% damage)
[9]
  PRE Application AMARE herbicidal damage (five point scale): 5 (5=80-100% damage)
[10]
  PRE Application ALOMY herbicidal damage (five point scale): 1 (1=0-19% damage)
[11]
  POST Application IPOHE herbicidal damage (five point scale): 4 (4=60-79% damage)
[12]
  POST Application ALOMY herbicidal damage (five point scale): 1 (1=0-19% damage)

## Cn1ncc(-c2ccc(C(F)(F)F)cc2[N+](=O)[O-])c(O)c1=O [Compound 1.110]
[1]
  PRE Application ECHCG herbicidal damage (five point scale): 1 (1=0-19% damage)
[2]
  POST Application ECHCG herbicidal damage (five point scale): 3 (3=40-59% damage)
Solanum nigrum (SOLNI) [3]
  PRE Application SOLNI herbicidal damage (five point scale): 1 (1=0-19% damage)
Setaria faberi (SETFA) [4]
  PRE Application SETFA herbicidal damage (five point scale): 1 (1=0-19% damage)
Solanum nigrum (SOLNI) [5]
  POST Application SOLNI herbicidal damage (five point scale): 5 (5=80-100% damage)
[6]
  POST Application AMARE herbicidal damage (five point scale): 5 (5=80-100% damage)
Setaria faberi (SETFA) [7]
  POST Application SETFA herbicidal damage (five point scale): 1 (1=0-19% damage)
[8]
  PRE Application IPOHE herbicidal damage (five point scale): 1 (1=0-19% damage)
[9]
  PRE Application AMARE herbicidal damage (five point scale): 5 (5=80-100% damage)
[10]
  PRE Application ALOMY herbicidal damage (five point scale): 1 (1=0-19% damage)
[11]
  POST Application IPOHE herbicidal damage (five point scale): 5 (5=80-100% damage)
[12]
  POST Application ALOMY herbicidal damage (five point scale): 1 (1=0-19% damage)

## Cn1ncc(-c2ccc(F)cc2C(F)(F)F)c(O)c1=O [Compound 1.112]
[1]
  PRE Application ECHCG herbicidal damage (five point scale): 1 (1=0-19% damage)
[2]
  POST Application ECHCG herbicidal damage (five point scale): 1 (1=0-19% damage)
Solanum nigrum (SOLNI) [3]
  PRE Application SOLNI herbicidal damage (five point scale): 1 (1=0-19% damage)
Setaria faberi (SETFA) [4]
  PRE Application SETFA herbicidal damage (five point scale): 1 (1=0-19% damage)
Solanum nigrum (SOLNI) [5]
  POST Application SOLNI herbicidal damage (five point scale): 4 (4=60-79% damage)
[6]
  POST Application AMARE herbicidal damage (five point scale): 5 (5=80-100% damage)
Setaria faberi (SETFA) [7]
  POST Application SETFA herbicidal damage (five point scale): 1 (1=0-19% damage)
[8]
  PRE Application IPOHE herbicidal damage (five point scale): 1 (1=0-19% damage)
[9]
  PRE Application AMARE herbicidal damage (five point scale): 1 (1=0-19% damage)
[10]
  PRE Application ALOMY herbicidal damage (five point scale): 1 (1=0-19% damage)
[11]
  POST Application IPOHE herbicidal damage (five point scale): 4 (4=60-79% damage)
[12]
  POST Application ALOMY herbicidal damage (five point scale): 1 (1=0-19% damage)
